These results are taken from PubChem BioAssay (NCI).

Some test systems named below: TK-10 renal; MALME-3M melanoma; MOLT-4 leukemia; KM12 colon; MDA-MB-435; SF-268 CNS; RXF 393 renal; LOX IMVI melanoma; CAKI-1 renal; NCI/ADR-RES ovarian.
What all share (test): NCI tumour cell line growth inhibition, 48 h

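Compound exposure: 48 hours, 5 concentrations, 96-well plates. GI50 marks 50% less growth. TGI marks complete inhibition of growth.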

Consider `Cc1ccc(Cl)cc1Nc1nc(C(F)(F)F)ccc1C(=O)N/N=C/c1cccnc1`, for which the GI50 was 1.32 µM with TK-10 renal; 1.27 µM in the test with MALME-3M melanoma; 1.42 µM with MOLT-4 leukemia; 3.19 µM in the test on KM12 colon; 3.99 µM in the test with MDA-MB-435; 1.55 µM in the test with SF-268 CNS. Further, the GI50 in the test on RXF 393 renal was 1.36 µM; with LOX IMVI melanoma it was 1.52 µM; in the test with CAKI-1 renal, 2.14 µM; with NCI/ADR-RES ovarian, 3.21 µM. Moreover, the TGI was 8.89 µM with TK-10 renal; 8.27 µM with MALME-3M melanoma; 10.7 µM with MOLT-4 leukemia; 11.8 µM in the test with KM12 colon; 15.7 µM in the test with MDA-MB-435; 9.32 µM with SF-268 CNS. Also, the TGI is 7.5 µM with RXF 393 renal, 13.6 µM in the test with LOX IMVI melanoma, 9.02 µM in the test on CAKI-1 renal and 20.3 µM in the test with NCI/ADR-RES ovarian.
Take `Cc1cc(Cl)cc2c(N=Nc3ccc(S(N)(=O)=O)cc3)c(O)[nH]c12`: the GI50 in the test on TK-10 renal, with MALME-3M melanoma, in the test with MOLT-4 leukemia, in the test with KM12 colon, with MDA-MB-435 and in the test with SF-268 CNS was more than 25 µM throughout. Moreover, the GI50 was more than 14.5 µM with RXF 393 renal, more than 25 µM in the test on LOX IMVI melanoma, more than 25 µM in the test with CAKI-1 renal and more than 25 µM in the test on NCI/ADR-RES ovarian. For the same compound, the TGI in the test on TK-10 renal, in the test with MALME-3M melanoma, with MOLT-4 leukemia, in the test with KM12 colon, with MDA-MB-435 and in the test on SF-268 CNS was more than 25 µM throughout. Further, the TGI in the test on RXF 393 renal, in the test on LOX IMVI melanoma, in the test with CAKI-1 renal and in the test on NCI/ADR-RES ovarian was more than 25 µM each time.
For `N#Cc1c(NC(=O)NCc2ccccc2)sc2c1CCCC2`, the GI50 in the test with TK-10 renal was 14.6 µM; in the test on MALME-3M melanoma, 0.598 µM; with MOLT-4 leukemia, 0.487 µM; in the test on KM12 colon, 0.425 µM; in the test with MDA-MB-435, 0.215 µM; in the test on SF-268 CNS, 1.82 µM. Besides, the GI50 in the test with RXF 393 renal was 0.481 µM; in the test with LOX IMVI melanoma, 0.643 µM; in the test with CAKI-1 renal, 0.776 µM; in the test with NCI/ADR-RES ovarian, 0.424 µM. Further, the TGI in the test with TK-10 renal is more than 100 µM; with MALME-3M melanoma, more than 100 µM; in the test on MOLT-4 leukemia, more than 100 µM; in the test with KM12 colon, more than 100 µM; in the test on MDA-MB-435 it was 0.595 µM; in the test with SF-268 CNS it was more than 100 µM. For the same compound, the TGI was 14.1 µM with RXF 393 renal, more than 100 µM in the test with LOX IMVI melanoma, more than 100 µM with CAKI-1 renal and more than 34.1 µM in the test with NCI/ADR-RES ovarian.
Consider `CSC1=Nc2c(c(C)c(-c3ccccc3)n2CCCN2CCCCC2)C2=NC(=O)C[C@H](C)N12`, for which the GI50 with TK-10 renal is 3.98 µM; with MALME-3M melanoma it was 2.63 µM; with MOLT-4 leukemia, 4.38 µM; in the test with KM12 colon, 3.26 µM; in the test with MDA-MB-435, 2.97 µM; in the test with SF-268 CNS, 3.96 µM. Besides, the GI50 was 2.56 µM with RXF 393 renal, 3.16 µM in the test with LOX IMVI melanoma, 12.1 µM in the test on CAKI-1 renal and 20 µM in the test on NCI/ADR-RES ovarian. Further, the TGI was more than 30.6 µM in the test with TK-10 renal; 9.61 µM in the test with MALME-3M melanoma; more than 22.5 µM in the test on MOLT-4 leukemia; 12.5 µM in the test with KM12 colon; 10.8 µM in the test with MDA-MB-435; 21.9 µM with SF-268 CNS. In addition, the TGI in the test on RXF 393 renal is 10.2 µM; in the test with LOX IMVI melanoma, 13.4 µM; in the test with CAKI-1 renal, 44.5 µM; in the test with NCI/ADR-RES ovarian, 79.1 µM.
As for `COC1=CC(c2ccc[nH]2)=N/C1=C\c1[nH]c(C)c(CC(=O)OCc2ccccc2)c1CCC(=O)OCc1ccccc1`, the GI50 with TK-10 renal is 0.406 µM; with MALME-3M melanoma, 0.886 µM; with MOLT-4 leukemia, 0.309 µM; in the test with KM12 colon, 0.367 µM; in the test on MDA-MB-435, 0.412 µM; in the test on SF-268 CNS it was 0.464 µM. The GI50 is 0.423 µM with RXF 393 renal, 0.284 µM in the test on LOX IMVI melanoma, 0.343 µM in the test on CAKI-1 renal and 0.579 µM with NCI/ADR-RES ovarian. The TGI in the test on TK-10 renal was found to be 2.1 µM; in the test with MALME-3M melanoma it was 2.62 µM; in the test on MOLT-4 leukemia, 2.01 µM; in the test on KM12 colon, 2.26 µM; in the test on MDA-MB-435, 1.64 µM; in the test with RXF 393 renal, 2.19 µM. Besides, the TGI in the test with LOX IMVI melanoma is 1.03 µM; in the test on CAKI-1 renal, 2.21 µM; in the test on NCI/ADR-RES ovarian, 3.37 µM.
`Nc1cc(F)ccc1CC(=O)O`: the TGI in the test on TK-10 renal, with MALME-3M melanoma, in the test with MOLT-4 leukemia, in the test on KM12 colon, with MDA-MB-435 and in the test with SF-268 CNS was more than 100 µM in each case. Also, the TGI with RXF 393 renal, in the test with LOX IMVI melanoma, in the test on CAKI-1 renal and in the test on NCI/ADR-RES ovarian was more than 100 µM throughout.
Regarding `C=C(C)[C@@H]1CC[C@]2(COCCC#N)CC[C@]3(C)[C@H](CC[C@@H]4[C@@](C)(CCCNCCC#N)[C@H](C(=C)C)CC[C@]43C)[C@@H]12`, the GI50 in the test on TK-10 renal was 16 µM; with MALME-3M melanoma it was 8.42 µM; with MOLT-4 leukemia, 7.72 µM; in the test on KM12 colon, 15.6 µM; in the test on MDA-MB-435, 12.7 µM; with SF-268 CNS, 23.5 µM. In addition, the GI50 in the test with RXF 393 renal is 7.44 µM; in the test with LOX IMVI melanoma it was 8.47 µM; with CAKI-1 renal, 7.13 µM; with NCI/ADR-RES ovarian, 20.7 µM. For the same compound, the TGI is more than 50 µM with TK-10 renal; 16.2 µM in the test with MALME-3M melanoma; 25 µM in the test with MOLT-4 leukemia; more than 50 µM in the test on KM12 colon; 34.5 µM with MDA-MB-435; more than 50 µM in the test with SF-268 CNS. Also, the TGI with RXF 393 renal is 14.5 µM; in the test with LOX IMVI melanoma, 16.7 µM; in the test with CAKI-1 renal, 15.6 µM; in the test on NCI/ADR-RES ovarian, more than 50 µM.
Take `Nc1c(C(=O)c2ccc(-c3cccnc3)cc2)cnn1-c1ccc(F)cc1`: the GI50 was more than 19.3 µM with TK-10 renal; 11 µM in the test with MALME-3M melanoma; more than 25 µM in the test on MOLT-4 leukemia; more than 20.8 µM in the test with KM12 colon; more than 25 µM with MDA-MB-435; more than 15.8 µM in the test on SF-268 CNS. Further, the GI50 is 14.5 µM with RXF 393 renal, more than 25 µM with LOX IMVI melanoma, more than 25 µM in the test on CAKI-1 renal and more than 19.5 µM in the test with NCI/ADR-RES ovarian. In addition, the TGI in the test with TK-10 renal is more than 25 µM; in the test on MALME-3M melanoma, more than 20.3 µM; with MOLT-4 leukemia it was more than 25 µM; in the test on KM12 colon, more than 25 µM; with MDA-MB-435, more than 25 µM; in the test on SF-268 CNS, more than 25 µM. Besides, the TGI in the test with RXF 393 renal, in the test with LOX IMVI melanoma, in the test on CAKI-1 renal and in the test on NCI/ADR-RES ovarian was more than 25 µM each time.
In the case of `NC1=CC(=O)c2cccnc2C1=O`, the GI50 in the test on TK-10 renal was 15.6 µM; in the test with MALME-3M melanoma it was 1.7 µM; in the test with MOLT-4 leukemia, 1.01 µM; with KM12 colon it was 3.28 µM; with MDA-MB-435, 0.833 µM; in the test on SF-268 CNS, 1.48 µM. Further, the GI50 in the test with RXF 393 renal was 1.67 µM; with LOX IMVI melanoma, 0.981 µM; in the test on CAKI-1 renal, 1.59 µM; in the test with NCI/ADR-RES ovarian, 2.29 µM. The TGI was found to be 29.2 µM in the test on TK-10 renal; 3.11 µM in the test on MALME-3M melanoma; 3.45 µM in the test with MOLT-4 leukemia; 13.1 µM in the test on KM12 colon; 2.12 µM in the test with MDA-MB-435; 3.78 µM with SF-268 CNS. Moreover, the TGI worked out at 3.2 µM with RXF 393 renal, 2.69 µM in the test with LOX IMVI melanoma, 3.15 µM in the test on CAKI-1 renal and 11.2 µM in the test with NCI/ADR-RES ovarian.
